Measured values published in PubChem BioAssay AID1963981 (Molecular Pharmacology Branch, DTP, NCI, 2024).

Test system: 354836-022-R-J1-PDC multicell spheroid viability
Assay: Anticancer human tumor 354836-022-R-J1-PDC patient-derived head and neck squamous cell carcinoma cell line growth inhibition [PI3K]
Conditions: for viability, T/C: stronger effect = lower value; active = viability on the fitted dose curve at most 10% of control; inactive = the rest
Method in brief: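 Combination activity was assessed by viability in multicellular tumor spheroids carrying HUVEC and MSC components. Agents were tested with PI3K inhibitors from a Cmax-based top dose (or 10 microM) downward in half-log increments.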

[1] = curve of first compound, second compound 0.0316 µM
[2] = curve of first compound, second compound 0.1 µM
[3] = curve of first compound, second compound 0.316 µM
[4] = curve of first compound, second compound 1 µM
[5] = curve of first compound, second compound 3.16 µM
[6] = curve of first compound, second compound 10 µM
[7] = second compound 0.0316 µM, first compound 0.0316 µM
[8] = second compound 0.0316 µM, first compound 0.1 µM
[9] = second compound 0.0316 µM, first compound 0.316 µM
[10] = second compound 0.0316 µM, first compound 1 µM
[11] = second compound 0.0316 µM, first compound 3.16 µM
[12] = second compound 0.0316 µM, first compound 10 µM
[13] = second compound 0.1 µM, first compound 0.0316 µM
[14] = second compound 0.1 µM, first compound 0.1 µM
[15] = second compound 0.1 µM, first compound 0.316 µM
[16] = second compound 0.1 µM, first compound 1 µM
[17] = second compound 0.1 µM, first compound 3.16 µM
[18] = second compound 0.1 µM, first compound 10 µM
[19] = second compound 0.316 µM, first compound 0.0316 µM
[20] = second compound 0.316 µM, first compound 0.1 µM
[21] = second compound 0.316 µM, first compound 0.316 µM
[22] = second compound 0.316 µM, first compound 1 µM
[23] = second compound 0.316 µM, first compound 3.16 µM
[24] = second compound 0.316 µM, first compound 10 µM
[25] = second compound 1 µM, first compound 0.0316 µM
[26] = second compound 1 µM, first compound 0.1 µM
[27] = second compound 1 µM, first compound 0.316 µM
[28] = second compound 1 µM, first compound 1 µM
[29] = second compound 1 µM, first compound 3.16 µM
[30] = second compound 1 µM, first compound 10 µM
[31] = second compound 3.16 µM, first compound 0.0316 µM
[32] = second compound 3.16 µM, first compound 0.1 µM
[33] = second compound 3.16 µM, first compound 0.316 µM
[34] = second compound 3.16 µM, first compound 1 µM
[35] = second compound 3.16 µM, first compound 3.16 µM
[36] = second compound 3.16 µM, first compound 10 µM
[37] = second compound 10 µM, first compound 0.0316 µM
[38] = second compound 10 µM, first compound 0.1 µM
[39] = second compound 10 µM, first compound 0.316 µM
[40] = second compound 10 µM, first compound 1 µM
[41] = second compound 10 µM, first compound 3.16 µM
[42] = second compound 10 µM, first compound 10 µM
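Note: spheroids exposed to agents for seven days before the viability read.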

Cn1cnc2c(F)c(Nc3ccc(Br)cc3Cl)c(C(=O)NOCCO)cc21 + Cc1nc(NC(=O)N2CCCC2C(N)=O)sc1-c1ccnc(C(C)(C)C(F)(F)F)c1
< 0.00949 µM: IC50 [6]
> 3 µM: IC50 [1] | IC50 [2] | IC50 [3] | IC50 [4]
inactive: viability, T/C (second compound 0.0316 µM, first compound 0.00949 µM) 85.6% | viability, T/C (second compound 0.0316 µM, first compound 0.03 µM) 82.2% | viability, T/C (second compound 0.0316 µM, first compound 0.0949 µM) 90.7% | viability, T/C (second compound 0.0316 µM, first compound 0.3 µM) 64.6% | viability, T/C (second compound 0.0316 µM, first compound 0.949 µM) 73.7% | viability, T/C (second compound 0.0316 µM, first compound 3 µM) 54.3% | viability, T/C (second compound 0.1 µM, first compound 0.00949 µM) 96.5% | viability, T/C (second compound 0.1 µM, first compound 0.03 µM) 83.1% | viability, T/C (second compound 0.1 µM, first compound 0.0949 µM) 82.9% | viability, T/C (second compound 0.1 µM, first compound 0.3 µM) 76.3% | viability, T/C (second compound 0.1 µM, first compound 0.949 µM) 70.4% | viability, T/C (second compound 0.1 µM, first compound 3 µM) 54.4% | viability, T/C (second compound 0.316 µM, first compound 0.00949 µM) 79.3% | viability, T/C (second compound 0.316 µM, first compound 0.03 µM) 86.2% | viability, T/C (second compound 0.316 µM, first compound 0.0949 µM) 80.5% | viability, T/C (second compound 0.316 µM, first compound 0.3 µM) 78.2% | viability, T/C (second compound 0.316 µM, first compound 0.949 µM) 75.6% | viability, T/C (second compound 0.316 µM, first compound 3 µM) 55.7% | viability, T/C (second compound 1 µM, first compound 0.00949 µM) 71.7% | viability, T/C (second compound 1 µM, first compound 0.03 µM) 75.2% | viability, T/C (second compound 1 µM, first compound 0.0949 µM) 78% | viability, T/C (second compound 1 µM, first compound 0.3 µM) 58.6% | viability, T/C (second compound 1 µM, first compound 0.949 µM) 63.3% | viability, T/C (second compound 1 µM, first compound 3 µM) 52% | viability, T/C (second compound 3.16 µM, first compound 0.00949 µM) 49.1% | viability, T/C (second compound 3.16 µM, first compound 0.03 µM) 58.1% | viability, T/C (second compound 3.16 µM, first compound 0.0949 µM) 55.8% | viability, T/C (second compound 3.16 µM, first compound 0.3 µM) 46% | viability, T/C (second compound 3.16 µM, first compound 0.949 µM) 54.8% | viability, T/C (second compound 3.16 µM, first compound 3 µM) 31.7% | viability, T/C (second compound 10 µM, first compound 0.00949 µM) 33% | viability, T/C (second compound 10 µM, first compound 0.03 µM) 29.7% | viability, T/C (second compound 10 µM, first compound 0.0949 µM) 30% | viability, T/C (second compound 10 µM, first compound 0.3 µM) 30.4% | viability, T/C (second compound 10 µM, first compound 0.949 µM) 25% | viability, T/C (second compound 10 µM, first compound 3 µM) 12.6%
1.1 µM: IC50 [5]

CC(Nc1ncnc2nc[nH]c12)c1cc2cccc(Cl)c2c(=O)n1-c1ccccc1 (stereo not given)
> 10 µM: IC50 (compound alone, run of 06/13/2023)
inactive: viability, T/C (compound 0.0316 µM) 101% [middle of 8 runs] | viability, T/C (compound 0.1 µM) 104% [middle of 8 runs] | viability, T/C (compound 0.316 µM) 99.3% [middle of 8 runs] | viability, T/C (compound 1 µM) 97.6% [middle of 8 runs] | viability, T/C (compound 3.16 µM) 92.8% [middle of 8 runs] | viability, T/C (compound 10 µM) 94.6% [middle of 8 runs]

C[C@@H](NC(=O)c1ncnc(N)c1Cl)c1ncc(C(=O)Nc2cc(C(F)(F)F)c(Cl)cn2)s1 + CC(Nc1ncnc2nc[nH]c12)c1cc2cccc(Cl)c2c(=O)n1-c1ccccc1
> 10 µM: IC50 [1] | IC50 [2] | IC50 [3] | IC50 [4] | IC50 [5] | IC50 [6]
inactive: viability, T/C [7] 88.8% | viability, T/C [8] 84.2% | viability, T/C [9] 102% | viability, T/C [10] 85% | viability, T/C [11] 99.7% | viability, T/C [12] 75.5% | viability, T/C [13] 90.3% | viability, T/C [14] 104% | viability, T/C [15] 108% | viability, T/C [16] 89% | viability, T/C [17] 89.6% | viability, T/C [18] 59.4% | viability, T/C [19] 103% | viability, T/C [20] 104% | viability, T/C [21] 92.5% | viability, T/C [22] 98.8% | viability, T/C [23] 87.9% | viability, T/C [24] 62.1% | viability, T/C [25] 100% | viability, T/C [26] 94.5% | viability, T/C [27] 97.4% | viability, T/C [28] 96.5% | viability, T/C [29] 102% | viability, T/C [30] 71% | viability, T/C [31] 90.6% | viability, T/C [32] 89.3% | viability, T/C [33] 105% | viability, T/C [34] 99% | viability, T/C [35] 92.8% | viability, T/C [36] 68.9% | viability, T/C [37] 82.7% | viability, T/C [38] 86% | viability, T/C [39] 84.8% | viability, T/C [40] 93.1% | viability, T/C [41] 87.7% | viability, T/C [42] 70.3%

Cn1ncc(Cl)c1-c1cc(C(=O)NC(CN)Cc2cccc(F)c2)sc1Cl (stereo not given) + CC(Nc1ncnc2nc[nH]c12)c1cc2cccc(Cl)c2c(=O)n1-c1ccccc1
active: viability, T/C [11] 5.4% | viability, T/C [12] 1.88% | viability, T/C [17] 5.21% | viability, T/C [18] 1.62% | viability, T/C [23] 5.75% | viability, T/C [24] 1.5% | viability, T/C [29] 5.53% | viability, T/C [30] 1.8% | viability, T/C [35] 7.18% | viability, T/C [36] 2.1% | viability, T/C [41] 8.1% | viability, T/C [42] 2.22%
0.112 µM: IC50 [3]
0.145 µM: IC50 [6]
inactive: viability, T/C [7] 74.6% | viability, T/C [8] 48.9% | viability, T/C [9] 31.8% | viability, T/C [10] 15.1% | viability, T/C [13] 70.7% | viability, T/C [14] 61.4% | viability, T/C [15] 36.3% | viability, T/C [16] 17.7% | viability, T/C [19] 74.1% | viability, T/C [20] 52.5% | viability, T/C [21] 30.3% | viability, T/C [22] 17.8% | viability, T/C [25] 65.6% | viability, T/C [26] 67% | viability, T/C [27] 29.6% | viability, T/C [28] 19.3% | viability, T/C [31] 75.6% | viability, T/C [32] 68.1% | viability, T/C [33] 39.5% | viability, T/C [34] 20.9% | viability, T/C [37] 70.8% | viability, T/C [38] 59.7% | viability, T/C [39] 31.8% | viability, T/C [40] 18.9%
0.215 µM: IC50 [5]
0.168 µM: IC50 [2]
0.1 µM: IC50 [1]
0.162 µM: IC50 [4]

CC1(C)CCC(CN2CCN(c3ccc(C(=O)NS(=O)(=O)c4ccc(NCC5CCOCC5)c([N+](=O)[O-])c4)c(Oc4cnc5[nH]ccc5c4)c3)CC2)=C(c2ccc(Cl)cc2)C1 + CC(Nc1ncnc2nc[nH]c12)c1cc2cccc(Cl)c2c(=O)n1-c1ccccc1
> 10 µM: IC50 [1] | IC50 [2] | IC50 [3] | IC50 [4] | IC50 [5] | IC50 [6]
inactive: viability, T/C [7] 92.4% | viability, T/C [8] 78% | viability, T/C [9] 85.5% | viability, T/C [10] 91.7% | viability, T/C [11] 71.3% | viability, T/C [12] 110% | viability, T/C [13] 81.3% | viability, T/C [14] 89.1% | viability, T/C [15] 97.8% | viability, T/C [16] 99.5% | viability, T/C [17] 67.2% | viability, T/C [18] 93% | viability, T/C [19] 86.3% | viability, T/C [20] 105% | viability, T/C [21] 103% | viability, T/C [22] 97.7% | viability, T/C [23] 64.1% | viability, T/C [24] 93% | viability, T/C [25] 106% | viability, T/C [26] 92.8% | viability, T/C [27] 93.4% | viability, T/C [28] 80.9% | viability, T/C [29] 66.4% | viability, T/C [30] 87.2% | viability, T/C [31] 89.1% | viability, T/C [32] 106% | viability, T/C [33] 95.2% | viability, T/C [34] 85.6% | viability, T/C [35] 60.8% | viability, T/C [36] 93.5% | viability, T/C [37] 90.9% | viability, T/C [38] 87% | viability, T/C [39] 90.2% | viability, T/C [40] 82.2% | viability, T/C [41] 53% | viability, T/C [42] 76.2%
